Key:
KRAS (G12D) = molecular target: T1, KRAS (G12D) (Homo sapiens, UniProt P01116, G12D); test: KRAS (G12D) cellular degradation assay in AsPC-1 cells; assay type: cell-based; settings: 24 hours, antibody fluorescence (Odyssey CLX), DC50 half-maximal degradation concentration
T1 construct: in-cell western with KRAS G12D antibody after 24 h
Outline: (§1)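 Read-outs were KRAS G12D immunofluorescence against β-actin after 24 h (DC50) and CellTiter Glo luminescence after 6 days (IC50). Compounds were titrated 1:3 from […] to 1.5 nM final on AsPC-1 cells at 37 °C, 5% CO2.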

AsPC-1 cells = test: AsPC-1 cell proliferation assay (CellTiter Glo); assay type: cell-based; settings: Homo sapiens, ASPC1, 144 h, 6 days
Outline: as §1

T1 sequence (P01116 1-188 isoform P01116-2 G12D): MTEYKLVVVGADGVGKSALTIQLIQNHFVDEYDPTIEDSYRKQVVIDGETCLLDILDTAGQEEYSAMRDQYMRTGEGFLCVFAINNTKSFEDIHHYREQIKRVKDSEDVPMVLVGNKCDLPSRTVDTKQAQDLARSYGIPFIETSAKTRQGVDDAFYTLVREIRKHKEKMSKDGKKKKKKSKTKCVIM

| SMILES | DC50 (KRAS (G12D)) [nM] | IC50 (AsPC-1 cells) [nM] |
| --- | --- | --- |
| Cc1ncsc1-c1ccc([C@H](CO)NC(=O)[C@@H]2C[C@@H](O)CN2C(=O)[C@H](C(C)C)n2cc(-c3ccc(COc4c(-c5c(C)c(F)c(F)c6[nH]ncc56)c(C5CC5)cc5c(N6C[C@@H]7C[C@H]6CN7)nc(OC6CCOCC6)nc45)cc3)nn2)cc1 [Example 76, (2S,4R)-1-((2S)-2-(4-(4-(((4-((1S,4S)-2,5-diazabicyclo[2.2.1]heptan-2-yl)-6-cyclopropyl-7-(6,7-difluoro-5-methyl-1H-indazol-4-yl)-2-((tetrahydro-2H-pyran-4-yl)oxy)quinazolin-8-yl)oxy)methyl)phenyl)-1H-1,2,3-triazol-1-yl)-3-methylbutanoyl)-4-hydroxy-N—((R)-2-hydroxy-1-(4-(4-methylthiazol-5-yl)phenyl)ethyl)pyrrolidine-2-carboxamide] | < 10 | < 10 |
| CCn1nccc1-c1ccc([C@@H](NC(=O)[C@@H]2C[C@@H](O)CN2C(=O)[C@H](C(C)C)n2cc(-c3ccc(COc4c(-c5c(C)c(F)cc6[nH]ncc56)c(C5CC5)cc5c(N6C[C@@H]7C[C@H]6CN7)nc(O[C@H]6C[C@H](OC)C6)nc45)cc3)nn2)[C@@H](C)O)cc1 [Example 131, (2S,4R)-1-((2S)-2-(4-(4-(((4-((1S,4S)-2,5-diazabicyclo[2.2.1]heptan-2-yl)-6-cyclopropyl-7-(6-fluoro-5-methyl-1H-indazol-4-yl)-2-((1r,3S)-3-methoxycyclobutoxy)quinazolin-8-yl)oxy)methyl)phenyl)-1H-1,2,3-triazol-1-yl)-3-methylbutanoyl)-N-((1R,2R)-1-(4-(1-ethyl-1H-pyrazol-5-yl)phenyl)-2-hydroxypropyl)-4-hydroxypyrrolidine-2-carboxamide] | < 10 | < 10 |

From patent US20260295053A1, “COMPOUNDS FOR DEGRADATION AND INHIBITION OF KRAS (G12D) PROTEIN” (Shenzhen Ionova Life Science Co., Ltd., priority 2023, published 2026)
